Read-outs that look alike come from different tables or passages of the source.
Test system: EGFR Fab binding to the EGFR antigen
Assay: ELISA competitive inhibition of EGFR Fab binding to EGFR antigen
Conditions: for IC50: read-out: IC50
[1] = Table 20, peptide-8 alanine scanning mutants
[2] = Table 21, peptide-8 alanine scanning mutants

Row | SMILES | Fold shift in IC50 relative to Peptide-8 (IC50 Ala mutant/IC50 Peptide-8) (Table 20) | IC50 [1] [µM] | Fold shift in IC50 relative to Peptide-8 (IC50 Ala mutant/IC50 Peptide-8) (Table 21) | IC50 [2] [µM]
1 | CC[C@H](C)[C@@H]1NC(=O)[C@H](Cc2c[nH]cn2)NC(=O)[C@H](CO)NC(=O)[C@H](CCCNC(=N)N)NC(=O)[C@@H](NC(=O)[C@H](C)N)CSSC[C@@H](C(=O)N[C@H](C(=O)O)C(C)C)NC(=O)[C@H]([C@@H](C)CC)NC(=O)[C@@H]2CCCN2C(=O)[C@H](CCCCN)NC(=O)[C@H](C)NC(=O)[C@H](C(C)C)NC(=O)[C@H](CC(=O)O)NC1=O [Peptide-17] | 4.1 | 16 |  | 
2 | CC[C@H](C)[C@@H]1NC(=O)[C@H](Cc2c[nH]cn2)NC(=O)[C@H](CO)NC(=O)[C@H](C)NC(=O)[C@@H](NC(=O)[C@@H]2CCCN2)CSSC[C@@H](C(=O)N[C@H](C(=O)O)C(C)C)NC(=O)[C@H]([C@@H](C)CC)NC(=O)[C@@H]2CCCN2C(=O)[C@H](CCCCN)NC(=O)[C@H](C)NC(=O)[C@H](C(C)C)NC(=O)[C@H](CC(=O)O)NC1=O [Peptide-18] | 1.4 | 5.6 |  | 
3 | CC[C@H](C)[C@@H]1NC(=O)[C@H](Cc2c[nH]cn2)NC(=O)[C@H](C)NC(=O)[C@H](CCCNC(=N)N)NC(=O)[C@@H](NC(=O)[C@@H]2CCCN2)CSSC[C@@H](C(=O)N[C@H](C(=O)O)C(C)C)NC(=O)[C@H]([C@@H](C)CC)NC(=O)[C@@H]2CCCN2C(=O)[C@H](CCCCN)NC(=O)[C@H](C)NC(=O)[C@H](C(C)C)NC(=O)[C@H](CC(=O)O)NC1=O [Peptide-19] | 24 | 93 |  | 
4 | CC[C@H](C)[C@@H]1NC(=O)[C@H](C)NC(=O)[C@H](CO)NC(=O)[C@H](CCCNC(=N)N)NC(=O)[C@@H](NC(=O)[C@@H]2CCCN2)CSSC[C@@H](C(=O)N[C@H](C(=O)O)C(C)C)NC(=O)[C@H]([C@@H](C)CC)NC(=O)[C@@H]2CCCN2C(=O)[C@H](CCCCN)NC(=O)[C@H](C)NC(=O)[C@H](C(C)C)NC(=O)[C@H](CC(=O)O)NC1=O [Peptide-20] | 2.8 | 11 |  | 
5 | CC[C@H](C)[C@@H]1NC(=O)[C@@H]2CCCN2C(=O)[C@H](CCCCN)NC(=O)[C@H](C)NC(=O)[C@H](C(C)C)NC(=O)[C@H](CC(=O)O)NC(=O)[C@H](C)NC(=O)[C@H](Cc2c[nH]cn2)NC(=O)[C@H](CO)NC(=O)[C@H](CCCNC(=N)N)NC(=O)[C@@H](NC(=O)[C@@H]2CCCN2)CSSC[C@@H](C(=O)N[C@H](C(=O)O)C(C)C)NC1=O [Peptide-21] | 0.5 | 1.95 |  | 
6 | CC[C@H](C)[C@@H]1NC(=O)[C@H](Cc2c[nH]cn2)NC(=O)[C@H](CO)NC(=O)[C@H](CCCNC(=N)N)NC(=O)[C@@H](NC(=O)[C@@H]2CCCN2)CSSC[C@@H](C(=O)N[C@H](C(=O)O)C(C)C)NC(=O)[C@H]([C@@H](C)CC)NC(=O)[C@@H]2CCCN2C(=O)[C@H](CCCCN)NC(=O)[C@H](C)NC(=O)[C@H](C(C)C)NC(=O)[C@H](C)NC1=O [Peptide-22] |  | > 100 |  | 
7 | CC[C@H](C)[C@@H]1NC(=O)[C@H](Cc2c[nH]cn2)NC(=O)[C@H](CO)NC(=O)[C@H](CCCNC(=N)N)NC(=O)[C@@H](NC(=O)[C@@H]2CCCN2)CSSC[C@@H](C(=O)N[C@H](C(=O)O)C(C)C)NC(=O)[C@H]([C@@H](C)CC)NC(=O)[C@@H]2CCCN2C(=O)[C@H](CCCCN)NC(=O)[C@H](C)NC(=O)[C@H](C)NC(=O)[C@H](CC(=O)O)NC1=O [Peptide-23] |  |  | 2.7 | 3.8
8 | CC[C@H](C)[C@@H]1NC(=O)[C@H](Cc2c[nH]cn2)NC(=O)[C@H](CO)NC(=O)[C@H](CCCNC(=N)N)NC(=O)[C@@H](NC(=O)[C@@H]2CCCN2)CSSC[C@@H](C(=O)N[C@H](C(=O)O)C(C)C)NC(=O)[C@H]([C@@H](C)CC)NC(=O)[C@@H]2CCCN2C(=O)[C@H](C)NC(=O)[C@H](C)NC(=O)[C@H](C(C)C)NC(=O)[C@H](CC(=O)O)NC1=O [Peptide-24] |  |  |  | > 100
